Data published in patent US20220380368A1, “SPIROCYCLIC ANDROGEN RECEPTOR PROTEIN DEGRADERS” (THE REGENTS OF THE UNIVERSITY OF MICHIGAN, priority 2019, published 2022).
Residue numbers refer to the chain shown, from its start. Read-outs that look alike come from different tables or passages of the source.

Experiments:
[1] = test system: AR protein; test: AR degradation in MDA-MB-453 cells (Western blotting); format: cell-based; settings: 24 hr treatment
Method: (§1) The appropriate cell line, e.g., prostate cancer LNCaP, Vcap, or 22RV1 cell line, was treated with Compounds of the Disclosure as indicated. The treated cells were lysed with RIPA buffer. The AR level in the cell lysates was examined by western blotting and a specific AR antibody (ab194196, Abcam, Cambridge, Mass. 02139) with concentration of 1:20,000. GAPDH was used as a loading control.
(§2) Bands were quantified with ImageJ software. The relative numbers of each band obtained from normalization with its corresponding GAPDH level were compared with Prism 8 software. The DC50 values were produced from Prism 8, and the DC90 values were calculated with an equation=Bottom+(Top−Bottom)/(1+10^((Log EC50−X)*HillSlope) based on DC50 and Hillslope values.

[2] = Mouse PK studies after oral and IV dosing; format: in vivo; settings: for AUC(0-t) / clearance / half-life / Vd / Cmax / Tmax: in vivo; for clearance: read-out: IV Cl (converted); for Vd: read-out: IV VSS
Method: The pharmacokinetics of representative Compounds of the Disclosure were determined after oral and IV dosing at the concentrations indicated in mouse (Table 7). […] The vehicles used in these studies are either (i) 10% PEG400+90% PBS (adjusted to pH to 8.0 by 0.5 N NaOH); or (ii) 100% PEG200.

[3] = target: T1, AR protein (Homo sapiens, UniProt P10275); test: Western blotting analysis of AR protein levels in VCaP cells, band quantification, DC50/DC90; format: cell-based; settings: for DC90: calculated from DC50 and Hillslope
T1 construct: endogenous in cells; host or cells: VCaP
T1 sequence (P10275 1-920): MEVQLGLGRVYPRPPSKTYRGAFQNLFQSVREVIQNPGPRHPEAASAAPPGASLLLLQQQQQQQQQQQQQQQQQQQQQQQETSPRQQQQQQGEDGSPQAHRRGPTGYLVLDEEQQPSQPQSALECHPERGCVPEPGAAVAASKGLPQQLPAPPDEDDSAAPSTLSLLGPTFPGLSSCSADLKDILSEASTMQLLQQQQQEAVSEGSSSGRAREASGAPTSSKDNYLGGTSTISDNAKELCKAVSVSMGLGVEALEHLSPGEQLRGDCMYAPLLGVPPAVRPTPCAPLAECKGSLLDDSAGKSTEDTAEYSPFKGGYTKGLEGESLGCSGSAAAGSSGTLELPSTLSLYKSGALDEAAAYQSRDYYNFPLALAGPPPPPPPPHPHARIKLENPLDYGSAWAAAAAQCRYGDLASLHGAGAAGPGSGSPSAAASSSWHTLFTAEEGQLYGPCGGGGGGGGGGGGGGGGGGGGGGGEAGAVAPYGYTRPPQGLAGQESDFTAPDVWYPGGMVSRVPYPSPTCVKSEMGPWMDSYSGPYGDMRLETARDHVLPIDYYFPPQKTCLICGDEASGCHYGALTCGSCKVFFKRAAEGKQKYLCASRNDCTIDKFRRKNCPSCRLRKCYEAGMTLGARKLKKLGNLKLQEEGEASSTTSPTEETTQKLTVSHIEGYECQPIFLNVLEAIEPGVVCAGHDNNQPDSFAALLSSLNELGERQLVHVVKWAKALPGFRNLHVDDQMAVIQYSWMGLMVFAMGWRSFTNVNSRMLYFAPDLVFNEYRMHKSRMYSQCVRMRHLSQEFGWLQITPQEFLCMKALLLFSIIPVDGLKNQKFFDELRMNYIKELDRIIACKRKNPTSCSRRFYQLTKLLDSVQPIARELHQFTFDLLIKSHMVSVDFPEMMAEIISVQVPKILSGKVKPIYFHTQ
Procedure, shortened: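 VCaP cells treated with compounds, lysed in RIPA and probed for AR by Western blot with GAPDH loading control. Band intensities normalised to GAPDH; DC50 from curve fit, DC90 calculated from DC50 and Hill slope via four-parameter equation.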

[4] = target: T2, AR protein (Homo sapiens, UniProt P10275, T878A); test: Western blotting analysis of AR protein levels in LNCaP cells, band quantification, DC50/DC90; format: cell-based; settings: prostate cancer LNCaP cells, 24 h treatment; for DC90: calculated from DC50 and Hillslope
T2 construct: endogenous in cells; host or cells: LNCaP
T2 sequence (P10275 1-920 T878A): T1 sequence (P10275 1-920) with T878A
Method: as §1, §2

[5] = test system: AR protein; test: Western blotting analysis of AR protein levels in 22RV1 cells, band quantification, DC50/DC90; format: cell-based; settings: prostate cancer 22RV1 cells, 24 h treatment; for DC90: calculated from DC50 and Hillslope
Method: as §1, §2

[6] = test system: AR-amplified prostate cancer cells; settings: cited from earlier work
[7] = prostate cancer Vcap cells, 24 h treatment

In the case of `N#Cc1ccc(N2CC3(CN(C(=O)c4ccc(C5CCN(CC6CCN(c7ccc8c(c7)C(=O)N(C7CCC(=O)NC7=O)C8=O)CC6)CC5)cc4)C3)C2)cc1Cl` (stereo not drawn) [compound 481], the “degradation at 10 nM” value [1] is reported as “B (>50% degradation but <90% (24 hr treatment))” and the “degradation at 100 nM” value [1] is reported as “A (>90% degradation (24 hr treatment))”.
In the case of `C[C@H]1CC2(CCN(c3ccc(C(=O)N4CCC(N5Cc6cc7c(cc6C5)C(=O)N(C5CCC(=O)NC5=O)C7=O)CC4)cc3)CC2)CN1c1ccc(C#N)c(Cl)c1` (stereo partly drawn) [Cpd. No. 307, 2-chloro-4-((3S)-8-(4-(4-(6-(2,6-dioxopiperidin-3-yl)-5,7-dioxo-3,5,6,7-tetrahydropyrrolo[3,4-f]isoindol-2(1H)-yl)piperidine-1-carbonyl)phenyl)-3-methyl-2,8-diazaspiro[4.5]decan-2-yl)benzonitrile], the F ([2]; PO 5 mg/kg vs IV 2 mg/kg) is reported as 67%, the AUC(0-t) ([2]; iv, 2 mg/kg, IV, dose 2 mg/kg, read-out: IV AUC(0 − t)) is reported as 50500 ng·h/mL and the clearance ([2]; iv, 2 mg/kg, IV, dose 2 mg/kg) is reported as 0.667 mL/min/kg. For the same compound, the half-life ([2]; iv, 2 mg/kg, IV, dose 2 mg/kg, read-out: IV T1/2 (converted)) was 4.34 h, the Vd ([2]; iv, 2 mg/kg, IV, dose 2 mg/kg) was 0.23 L/kg and the Cmax ([2]; po, 5 mg/kg) was 9120 ng/mL. It also gave a Tmax ([2]; po, 5 mg/kg) of 2 h, an AUC(0-t) ([2]; po, 5 mg/kg, PO, dose 5 mg/kg, read-out: PO AUC(0 − t)) of 85200 ng·h/mL and a half-life ([2]; po, 5 mg/kg, PO, dose 5 mg/kg, read-out: PO T1/2 (converted)) of 4.4 h. For the same compound, the DC90 [3, 7] was 0.199 nM, the DC50 ([3]; prostate cancer Vcap cells, 24 h treatment, read-out: DC50) was 0.046 nM and the DC90 [4] was 0.11 nM. For the same compound, the DC50 ([4]; read-out: DC50) was 0.082 nM, the DC50 [5] was 0.9 nM and the DC90 [5] was 3.1 nM.
With `N#Cc1ccc(OC2CC3(C2)CN(C(=O)c2ccc(C4CCN(CC5CCN(c6ccc7c(c6)C(=O)N(C6CCC(=O)NC6=O)C7=O)CC5)CC4)cc2)C3)cc1Cl` (stereo not drawn) [compound 480] the “degradation at 10 nM” value [1] was “B (>50% degradation but <90% (24 hr treatment))” and the “degradation at 100 nM” value [1] was “A (>90% degradation (24 hr treatment))”.
Compound `C[C@H]1CC2(CCN(c3ccc(C(=O)N4CCN(C5CN(c6ccc7c(c6)C(=O)N(C6CCC(=O)NC6=O)C7=O)C5)CC4)cc3)CC2)CN1c1ccc(C#N)c(Cl)c1` (stereo partly drawn) [Cpd. No. 293, 2-chloro-4-((3S)-8-(4-(4-(1-(2-(2,6-dioxopiperidin-3-yl)-1,3-dioxoisoindolin-5-yl)azetidin-3-yl)piperazine-1-carbonyl)phenyl)-3-methyl-2,8-diazaspiro[4.5]decan-2-yl)benzonitrile] has a DC50 [3, 7] of 0.031 nM, a DC90 [3, 7] of 0.41 nM and a DC50 [4] of 0.3 nM. The DC90 [4] was 0.33 nM, the DC50 [5] was 0.14 nM and the DC90 [5] was 0.23 nM.
In the case of `Cc1ncsc1-c1ccc(CNC(=O)C2C[C@@H](O)CN2C(=O)[C@@H](NC(=O)COCCCCOc2ccc(-c3ccc(N4C(=S)N(c5ccc(C#N)c(C(F)(F)F)c5)C(=O)C4(C)C)cc3)cc2)C(C)(C)C)cc1` (stereo partly drawn) [ARCC-4, (4R)-1-((S)-2-(2-(4-((4′-(3-(4-cyano-3-(trifluoromethyl)phenyl)-5,5-dimethyl-4-oxo-2-thioxoimidazolidin-1-yl)-[1,1′-biphenyl]-4-yl)oxy)butoxy)acetamido)-3,3-dimethylbutanoyl)-4-hydroxy-N-(4-(4-methylthiazol-5-yl)benzyl)pyrrolidine-2-carboxamide], the “inducing apoptosis and inhibiting proliferation, compared with enzalutamide” value [6] is given as “more potent and effective than enzalutamide”.
With `C[C@H]1CC2(CCN(c3ccc(C(=O)N4CCC(CN5Cc6cc7c(cc6C5)C(=O)N(C5CCC(=O)NC5=O)C7=O)CC4)nn3)CC2)CN1c1ccc(C#N)c(Cl)c1` (stereo partly drawn) [Cpd. No. 496, 2-chloro-4-((3S)-8-(6-(4-((6-(2,6-dioxopiperidin-3-yl)-5,7-dioxo-3,5,6,7-tetrahydropyrrolo[3,4-f]isoindol-2(1H)-yl)methyl)piperidine-1-carbonyl)pyridazin-3-yl)-3-methyl-2,8-diazaspiro[4.5]decan-2-yl)benzonitrile] the F ([2]; PO 3 mg/kg vs IV 1 mg/kg) was 72%, the AUC(0-t) ([2]; iv, 1 mg/kg, IV, dose 1 mg/kg, read-out: IV AUC(0 − t)) was 3030 ng·h/mL and the clearance ([2]; iv, 1 mg/kg, IV, dose 1 mg/kg) was 5.33 mL/min/kg. The half-life ([2]; iv, 1 mg/kg, IV, dose 1 mg/kg, read-out: IV T1/2 (converted)) was 5.8 h, the Vd ([2]; iv, 1 mg/kg, IV, dose 1 mg/kg) was 1.46 L/kg and the Cmax ([2]; po, 3 mg/kg) was 1420 ng/mL. The Tmax ([2]; po, 3 mg/kg) was 1 h, the AUC(0-t) ([2]; po, 3 mg/kg, PO, dose 3 mg/kg, read-out: PO AUC(0 − t)) was 6550 ng·h/mL and the half-life ([2]; po, 3 mg/kg, PO, dose 3 mg/kg, read-out: PO T1/2 (converted)) was 4.1 h. The DC50 ([3]; VCaP cells, Table 6, read-out: VCaP DC50) was less than 1 nM.
